In ChEMBL document CHEMBL5344460, “Advancements in Predictive Medicine: NLRP3 Inflammasome Inhibitors and AI-Driven Predictive Health Analytics” (ACS Med Chem Lett, 2024) one finds Kd data, which are given here for three compounds.

The target of the assay is NACHT, LRR and PYD domains-containing protein 3 (Homo sapiens, UniProt Q96P20). In words: Binding affinity to human recombinant NLRP3 inflammasome.
NACHT, LRR and PYD domains-containing protein 3, sequence (Q96P20 whole entry, the tested form may be a part): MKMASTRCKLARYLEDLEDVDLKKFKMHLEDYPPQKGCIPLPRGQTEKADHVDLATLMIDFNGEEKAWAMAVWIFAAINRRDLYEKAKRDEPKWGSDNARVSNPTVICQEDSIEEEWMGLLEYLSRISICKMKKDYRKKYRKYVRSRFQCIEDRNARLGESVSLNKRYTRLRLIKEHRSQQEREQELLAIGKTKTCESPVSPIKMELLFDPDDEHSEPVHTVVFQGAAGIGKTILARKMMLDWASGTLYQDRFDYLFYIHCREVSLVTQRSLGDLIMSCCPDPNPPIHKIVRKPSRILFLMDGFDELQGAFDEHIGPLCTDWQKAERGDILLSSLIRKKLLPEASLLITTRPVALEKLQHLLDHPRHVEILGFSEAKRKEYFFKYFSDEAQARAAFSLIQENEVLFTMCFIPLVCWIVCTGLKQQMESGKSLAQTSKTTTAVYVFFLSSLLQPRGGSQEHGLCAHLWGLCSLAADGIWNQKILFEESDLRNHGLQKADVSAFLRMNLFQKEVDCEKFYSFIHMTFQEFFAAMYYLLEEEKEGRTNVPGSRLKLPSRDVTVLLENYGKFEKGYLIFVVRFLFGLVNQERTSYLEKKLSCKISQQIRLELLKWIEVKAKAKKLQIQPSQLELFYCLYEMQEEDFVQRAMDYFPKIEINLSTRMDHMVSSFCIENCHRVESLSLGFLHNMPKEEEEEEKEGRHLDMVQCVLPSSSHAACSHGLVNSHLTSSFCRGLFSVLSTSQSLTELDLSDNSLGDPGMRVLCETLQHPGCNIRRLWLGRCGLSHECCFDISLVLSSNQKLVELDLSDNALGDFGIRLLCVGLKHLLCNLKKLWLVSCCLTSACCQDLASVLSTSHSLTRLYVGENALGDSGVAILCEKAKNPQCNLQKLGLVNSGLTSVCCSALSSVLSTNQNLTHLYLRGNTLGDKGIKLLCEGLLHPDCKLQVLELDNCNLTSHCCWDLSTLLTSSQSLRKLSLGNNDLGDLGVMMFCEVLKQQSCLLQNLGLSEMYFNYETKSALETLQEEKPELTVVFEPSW
As a reminder, the Kd is the concentration at which binding is half-saturated. With `COc1ccc(Cl)cc1Cn1cc(-c2ccc(C(=O)N3CCC3)cc2)nn1`, the Kd stood at 3000 nM.
Under `COc1ccc(Cl)cc1Cn1cc(C(=O)N2CC(F)(F)C2)nn1` stands 980 nM.
Under `COC(=O)c1ccc(-c2cn(Cc3cc(Cl)ccc3OC)nn2)nc1` stands 860 nM.
